Laboratory results as given in EP2311457A1, “Pharmaceutical compositions for treating infections with drug resistant mycobacteria” (priority 2009, dated 2011).
≈ marks a conversion by molar mass, not a printed value.

System: Mtb 09457/06 XDR
Experiment: Drug susceptibility testing, radiometric MIC determination (BACTEC 460TB)
Settings: Mycobacterium tuberculosis, read-out: minimal inhibitory concentrations

Structure (SMILES)	MIC
C(=NNc1nncc2ccccc12)c1ccc(OCc2ccccc2)cn1 [PH22-6, 5-benzyloxypyridine-2-aldehyde-1'-phthalazinylhydrazone]	1 µg/mL (≈ 2.81 µM)
Cc1ccc(C=NNc2ccc3ccccc3n2)nc1 [PH22-14, 5-methylpyridine-2-aldehyde-2'-quinolylhydrazone]	0.5 µg/mL (≈ 1.91 µM)
c1ccc(C(=NNc2ccc3ccccc3n2)c2ccccn2)cc1 [PH22-15, 2-benzoylpyridine-2'-quinolylhydrazone]	0.25 µg/mL (≈ 0.771 µM)
Cc1ccc(C=NNc2nncc3ccccc23)nc1 [PH22-16, 5-methyl-pyridine-2-aldehyde-1'-phthalazinylhydrazone]	< 1 µg/mL
c1ccc(C(=NNc2nncc3ccccc23)c2ccccn2)cc1 [PH22-22, 2-benzoylpyridine-1'-phthalazinylhydrazone]	5 µg/mL (≈ 15.4 µM)
Cc1cccc(NN=Cc2ccccn2)n1 [PH22-31, pyridine-2-aldehyde-6'-methyl-2'-pyridylhydrazone]	1 µg/mL (≈ 4.71 µM)
CCc1ccc(C=NNc2cc(OC)ncn2)nc1 [PH22-33, 5-ethylpyridine-2-aldehyde-6'-methoxy-4'-pyrimidylhydrazone]	< 0.125 µg/mL
C(=NNc1ccccn1)c1ccc(OCc2ccccc2)cn1 [PH22-49, 5-benzyloxypyridine-2-aldehyde-2'-pyridylhydrazone]	1 µg/mL (≈ 3.29 µM)
Clc1ccc(NN=Cc2ccc(OCc3ccccc3)cn2)nn1 [PH22-51, 5-benzyloxypyridine-2-aldehyde-6'-chloro-3'-pyridazinylhydrazone]	1 µg/mL (≈ 2.94 µM)
C(=NNc1ncnc2ccccc12)c1ccc(OCc2ccccc2)cn1 [PH22-52, 5-benzyloxypyridine-2-aldehyde-4'-quinazolinylhydrazone]	1 µg/mL (≈ 2.81 µM)
